ChEMBL document CHEMBL3232706, “SAR-studies on the importance of aromatic ring topologies in search for selective 5-HT(7) receptor ligands among phenylpiperazine hydantoin derivatives” (Eur J Med Chem, 2014)

Legend:
[1] = target: 5-hydroxytryptamine receptor 6 (Homo sapiens, UniProt P50406); test: Displacement of [3H]-LSD from human recombinant 5-HT6 receptor expressed in HEK293 cell membrane after 1 hr by Microbeta scintillation counting analysis; format: cell membranes
[2] = target: T1, 5-hydroxytryptamine receptor 1A (Homo sapiens, UniProt P08908); test: Displacement of [3H]-8-OH-DPAT from human recombinant 5-HT1A receptor expressed in HEK293 cell membrane after 1 hr by Microbeta scintillation counting analysis; format: cell membranes
T1 sequence (P08908 whole entry): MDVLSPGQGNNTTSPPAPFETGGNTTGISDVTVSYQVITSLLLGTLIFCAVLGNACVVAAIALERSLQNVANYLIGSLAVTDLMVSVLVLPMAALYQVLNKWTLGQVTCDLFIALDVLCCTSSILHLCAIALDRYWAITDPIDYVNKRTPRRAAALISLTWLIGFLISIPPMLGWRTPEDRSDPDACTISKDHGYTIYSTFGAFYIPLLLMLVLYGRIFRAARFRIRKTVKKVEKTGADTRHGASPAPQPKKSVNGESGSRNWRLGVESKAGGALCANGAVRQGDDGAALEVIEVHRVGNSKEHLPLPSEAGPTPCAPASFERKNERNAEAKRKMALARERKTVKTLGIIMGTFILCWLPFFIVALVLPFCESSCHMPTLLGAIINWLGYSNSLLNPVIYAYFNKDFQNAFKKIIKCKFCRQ

[3] = target: T2, Adrenergic receptor alpha-1 (Rattus norvegicus, UniProt P15823+P23944+P43140); test: Displacement of [3H]prazosin from alpha1 adrenergic receptor in rat cerebral cortex after 30 mins by Microbeta scintillation counting analysis; format: tissue-based
T2 sequence (P15823 whole entry): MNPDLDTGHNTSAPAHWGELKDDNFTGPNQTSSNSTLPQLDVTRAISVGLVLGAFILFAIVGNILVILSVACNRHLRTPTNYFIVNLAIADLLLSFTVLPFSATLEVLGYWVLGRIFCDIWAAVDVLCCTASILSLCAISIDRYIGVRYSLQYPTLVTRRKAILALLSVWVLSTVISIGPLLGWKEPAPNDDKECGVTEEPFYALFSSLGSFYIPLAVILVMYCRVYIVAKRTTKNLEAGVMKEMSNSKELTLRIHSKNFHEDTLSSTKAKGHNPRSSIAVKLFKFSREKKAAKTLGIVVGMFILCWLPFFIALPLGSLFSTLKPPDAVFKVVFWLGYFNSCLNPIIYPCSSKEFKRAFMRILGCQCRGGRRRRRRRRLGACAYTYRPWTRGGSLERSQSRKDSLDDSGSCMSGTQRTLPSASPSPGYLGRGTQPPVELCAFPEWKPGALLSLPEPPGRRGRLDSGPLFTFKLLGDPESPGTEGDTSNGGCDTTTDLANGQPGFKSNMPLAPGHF
T2 sequence (P23944 whole entry): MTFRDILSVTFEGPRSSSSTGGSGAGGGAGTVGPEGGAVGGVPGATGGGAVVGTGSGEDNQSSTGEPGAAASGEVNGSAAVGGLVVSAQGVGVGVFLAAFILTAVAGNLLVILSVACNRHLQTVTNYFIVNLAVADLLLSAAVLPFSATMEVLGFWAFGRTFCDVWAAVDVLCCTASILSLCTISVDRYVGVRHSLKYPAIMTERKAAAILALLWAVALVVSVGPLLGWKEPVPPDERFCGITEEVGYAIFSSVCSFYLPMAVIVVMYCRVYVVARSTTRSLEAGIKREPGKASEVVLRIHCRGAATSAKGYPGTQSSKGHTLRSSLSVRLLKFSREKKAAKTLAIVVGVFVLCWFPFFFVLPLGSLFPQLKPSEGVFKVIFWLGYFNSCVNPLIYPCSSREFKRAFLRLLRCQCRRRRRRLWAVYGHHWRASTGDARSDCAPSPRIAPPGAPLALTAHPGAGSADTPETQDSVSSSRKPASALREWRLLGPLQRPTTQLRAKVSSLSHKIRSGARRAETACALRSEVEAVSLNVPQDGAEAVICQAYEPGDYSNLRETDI
T2 sequence (P43140 whole entry): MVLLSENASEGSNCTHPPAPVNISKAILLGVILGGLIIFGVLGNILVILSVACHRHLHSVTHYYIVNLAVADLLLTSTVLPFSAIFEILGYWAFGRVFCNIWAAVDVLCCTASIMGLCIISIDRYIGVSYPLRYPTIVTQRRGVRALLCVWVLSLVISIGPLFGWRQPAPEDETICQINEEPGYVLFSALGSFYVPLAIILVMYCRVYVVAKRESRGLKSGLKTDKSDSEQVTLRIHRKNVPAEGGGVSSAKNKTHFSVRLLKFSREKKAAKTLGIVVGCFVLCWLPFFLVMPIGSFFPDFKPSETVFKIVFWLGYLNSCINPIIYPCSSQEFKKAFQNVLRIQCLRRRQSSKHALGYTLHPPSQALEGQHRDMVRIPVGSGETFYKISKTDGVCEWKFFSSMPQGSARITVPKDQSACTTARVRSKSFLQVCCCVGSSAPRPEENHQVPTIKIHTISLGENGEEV

[4] = target: 5-hydroxytryptamine receptor 7 (Homo sapiens, UniProt P34969); test: Displacement of [3H]-5-CT from human recombinant 5-HT7 receptor expressed in HEK293 cell membrane after 1 hr by Microbeta scintillation counting analysis; format: cell membranes
Sequence of 5-hydroxytryptamine receptor 7 (P34969 whole entry): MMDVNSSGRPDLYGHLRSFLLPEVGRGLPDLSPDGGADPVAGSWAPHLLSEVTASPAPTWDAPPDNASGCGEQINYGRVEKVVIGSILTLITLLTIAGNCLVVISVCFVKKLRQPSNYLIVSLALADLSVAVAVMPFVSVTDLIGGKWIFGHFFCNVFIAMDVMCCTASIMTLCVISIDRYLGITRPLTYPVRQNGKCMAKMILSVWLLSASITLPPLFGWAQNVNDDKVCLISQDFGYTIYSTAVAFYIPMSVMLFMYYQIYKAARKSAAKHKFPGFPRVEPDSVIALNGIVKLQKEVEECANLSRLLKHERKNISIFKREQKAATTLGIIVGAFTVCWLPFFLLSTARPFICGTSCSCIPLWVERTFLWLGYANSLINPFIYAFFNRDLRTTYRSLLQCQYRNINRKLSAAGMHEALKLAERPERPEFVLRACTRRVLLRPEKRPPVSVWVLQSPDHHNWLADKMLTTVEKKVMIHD

HEK293 [5] = test: Selectivity ratio of Ki for human recombinant 5-HT1A receptor expressed in HEK293 cell membrane to Ki for human recombinant 5-HT7 receptor expressed in HEK293 cell membrane; format: cell-based
HEK293 [6] = test: Selectivity ratio of Ki for alpha1 adrenergic receptor in rat cerebral cortex to Ki for human recombinant 5-HT7 receptor expressed in HEK293 cell membrane; format: cell-based
[7] = target: T3, 5-hydroxytryptamine receptor 3A (Homo sapiens) (UniProt P46098); test: Reversible inhibition of human 5-HT3A expressed in xenopus oocytes assessed as decrease in 5-HT-activated chloride current at […] by two-electrode voltage clamp technique; format: cell-based
T3 sequence (whole entry): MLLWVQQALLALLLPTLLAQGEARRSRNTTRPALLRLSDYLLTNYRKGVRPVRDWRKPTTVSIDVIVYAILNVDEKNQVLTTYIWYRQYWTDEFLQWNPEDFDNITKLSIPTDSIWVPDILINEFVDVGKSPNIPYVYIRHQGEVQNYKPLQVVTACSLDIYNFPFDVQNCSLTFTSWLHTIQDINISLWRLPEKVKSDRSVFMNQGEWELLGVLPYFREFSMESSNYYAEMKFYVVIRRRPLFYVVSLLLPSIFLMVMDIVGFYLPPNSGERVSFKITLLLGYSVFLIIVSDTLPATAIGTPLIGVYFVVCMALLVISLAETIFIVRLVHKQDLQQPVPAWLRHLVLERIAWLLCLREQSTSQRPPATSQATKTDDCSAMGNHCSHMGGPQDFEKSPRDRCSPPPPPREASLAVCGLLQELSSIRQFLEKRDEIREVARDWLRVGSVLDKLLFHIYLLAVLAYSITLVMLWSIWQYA

[8] = target: T4, Alpha-1D adrenergic receptor (Rattus norvegicus, UniProt P23944); test: Antagonist activity at alpha1D adrenoceptor in Wistar (Krf:(WI) WU) rat endothelium-denuded thoracic aorta assessed as inhibition of noradrenaline-induced contraction after 30 mins; conditions: read-out: pA2 (converted)
T4 sequence (P23944 whole entry): T2 sequence (P23944 whole entry)

[9] = target: T5, Alpha-1B adrenergic receptor (Mus musculus, UniProt P97717); test: Antagonist activity at alpha1B-adrenoceptor in Albino swiss mouse spleen assessed as inhibition of noradrenaline-induced contraction after 30 mins; conditions: read-out: pA2 (converted)
T5 sequence (P97717 whole entry): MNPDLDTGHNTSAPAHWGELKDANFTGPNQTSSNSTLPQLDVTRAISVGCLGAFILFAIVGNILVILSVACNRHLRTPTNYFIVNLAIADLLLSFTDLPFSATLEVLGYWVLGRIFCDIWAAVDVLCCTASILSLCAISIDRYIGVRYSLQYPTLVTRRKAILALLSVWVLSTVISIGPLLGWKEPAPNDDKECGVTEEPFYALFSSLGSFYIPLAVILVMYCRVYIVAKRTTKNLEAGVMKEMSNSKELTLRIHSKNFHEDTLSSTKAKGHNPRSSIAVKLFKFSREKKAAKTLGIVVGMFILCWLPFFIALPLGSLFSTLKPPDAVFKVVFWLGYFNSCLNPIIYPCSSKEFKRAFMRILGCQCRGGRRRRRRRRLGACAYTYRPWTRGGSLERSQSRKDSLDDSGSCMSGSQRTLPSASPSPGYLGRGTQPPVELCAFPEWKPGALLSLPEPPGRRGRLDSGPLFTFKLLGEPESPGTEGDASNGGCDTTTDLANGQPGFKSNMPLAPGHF

[10] = target: T6, Alpha-1A adrenergic receptor (Rattus norvegicus, UniProt P43140); test: Antagonist activity at alpha1A adrenoceptor in Wistar (Krf:(WI) WU) rat endothelium-denuded tail artery assessed as inhibition of noradrenaline-induced contraction after 30 mins; conditions: read-out: pA2 (converted)
T6 sequence (P43140 whole entry): T2 sequence (P43140 whole entry)

Sequence of 5-hydroxytryptamine receptor 6 (P50406 whole entry): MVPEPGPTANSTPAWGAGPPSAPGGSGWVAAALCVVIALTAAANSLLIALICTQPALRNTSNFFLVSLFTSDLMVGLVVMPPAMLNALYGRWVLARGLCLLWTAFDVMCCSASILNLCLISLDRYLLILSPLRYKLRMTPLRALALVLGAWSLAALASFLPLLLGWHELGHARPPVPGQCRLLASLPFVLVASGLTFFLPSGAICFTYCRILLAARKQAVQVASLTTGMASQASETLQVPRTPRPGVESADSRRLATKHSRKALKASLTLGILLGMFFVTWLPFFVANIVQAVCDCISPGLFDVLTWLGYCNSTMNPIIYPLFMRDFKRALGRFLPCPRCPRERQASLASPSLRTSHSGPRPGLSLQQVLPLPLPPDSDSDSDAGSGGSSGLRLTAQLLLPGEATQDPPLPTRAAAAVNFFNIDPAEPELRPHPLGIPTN

SMILES: COc1ccccc1N1CCN(CCCCCN2C(=O)N(Cc3ccccc3)C(=O)C2(C)C)CC1.Cl
- Ki [1]: 8.61 µM
- Ki [2]: 0.026 µM
- Ki [3]: 0.0426 µM
- Ki [4]: 0.072 µM

SMILES: CC1(C)C(=O)N(Cc2ccc(Cl)cc2Cl)C(=O)N1CCCCCN1CCN(c2ccc(Cl)c(Cl)c2)CC1.Cl
- Ki [1]: 0.314 µM
- Ratio Ki (HEK293 [5]): 4
- Ki [2]: 0.301 µM
- Ki [3]: 0.673 µM
- Ratio Ki (HEK293 [6]): 9
- Ki [4]: 0.078 µM

SMILES: CC1(C)C(=O)N(Cc2ccc(Cl)cc2Cl)C(=O)N1CCCCCN1CCN(c2cccc(Cl)c2Cl)CC1.Cl
- Ki [1]: 0.395 µM
- Ratio Ki (HEK293 [5]): 3
- Ki [2]: 0.088 µM
- Ki [3]: 0.9688 µM
- Ratio Ki (HEK293 [6]): 31
- inhibition [7]: 13.8%
- Ki [4]: 0.031 µM

SMILES: CC1(C)C(=O)N(Cc2ccccc2)C(=O)N1CCCCCN1CCN(c2ccc(F)cc2)CC1.Cl
- Ki [1]: 1.94 µM
- Ki [2]: 0.201 µM
- Ki [3]: 0.0684 µM
- Ki [4]: 0.045 µM

SMILES: CC1(C)C(=O)N(Cc2ccccc2)C(=O)N1CCCCCN1CCN(c2ccccc2)CC1.Cl
- Ki [1]: 4.37 µM
- Ki [2]: 0.079 µM
- Ki [3]: 0.068 µM
- inhibition [7]: 14.3%
- Ki [4]: 0.07 µM

SMILES: CC1(C)C(=O)N(Cc2ccccc2)C(=O)N1CCCCCN1CCN(c2ccc(F)cc2F)CC1.Cl
- Ki [1]: 7.47 µM
- Ki [2]: 0.235 µM
- Ki [3]: 0.0715 µM
- Ki [4]: 0.172 µM

SMILES: CC1(C)C(=O)N(Cc2ccc(Cl)cc2Cl)C(=O)N1CCCCCN1CCN(c2ccc(Cl)cc2)CC1.Cl
- Ki [1]: 2.88 µM
- Ki [2]: 2.18 µM
- Ki [3]: 0.7585 µM
- Ki [4]: 0.456 µM

SMILES: CCOc1ccccc1N1CCN(CCCN2C(=O)N(C)C(=O)C2(c2ccccc2)c2ccccc2)CC1
- Ki [1]: 4.14 µM
- Ki [2]: 0.0055 µM
- Ki [3]: 2.6 µM
- Ki [4]: 0.095 µM

SMILES: CC1(C)C(=O)N(Cc2ccc(F)cc2)C(=O)N1CCCCCN1CCN(c2ccc(F)cc2)CC1.Cl
- Ki [1]: 1.76 µM
- Ki [2]: 0.305 µM
- Ki [3]: 0.0368 µM
- inhibition [7]: 17.2%
- Ki [4]: 0.046 µM

SMILES: CC1(C)C(=O)N(Cc2ccccc2)C(=O)N1CCCCCN1CCN(c2ccccc2F)CC1.Cl
- Ki [1]: 2.51 µM
- Ki [2]: 0.076 µM
- Ki [3]: 0.071 µM
- Ki [4]: 0.135 µM

SMILES: COc1ccccc1N1CCN(CCCCN2C(=O)N(C)C(=O)C2(c2ccccc2)c2ccccc2)CC1
- Ki [1]: 3.57 µM
- Ki [2]: 0.0008 µM
- Ki [4]: 0.016 µM

SMILES: COc1ccccc1N1CCN(CCCCCN2C(=O)N(C)C(=O)C2(C)c2ccccc2)CC1.Cl (stereo not given)
- Ki [1]: 14.6 µM
- Ki [2]: 0.0233 µM
- Ki [3]: 0.0423 µM
- inhibition [7]: 19.8%
- Ki [4]: 0.034 µM

SMILES: COc1ccccc1N1CCN(CC(O)CN2C(=O)NC(C)(c3ccc(F)cc3)C2=O)CC1.Cl (stereo not given)
- Ki [1]: 10.8 µM
- Ki [3]: 0.1811 µM
- inhibition [7]: 16.6%

SMILES: COc1ccccc1N1CCN(CCCN2C(=O)N(C)C(=O)C2(c2ccccc2)c2ccccc2)CC1
- Ki [1]: 29.1 µM
- Ki [2]: 0.0065 µM
- Ki [4]: 0.21 µM

SMILES: COc1cccc(N2CCN(CCCCCN3C(=O)N(Cc4ccccc4)C(=O)C3(C)C)CC2)c1.Cl
- Ki [1]: 2.93 µM
- Ki [2]: 0.045 µM
- Ki [3]: 0.0972 µM
- Ki [4]: 0.122 µM

SMILES: CN1C(=O)N(CC(O)CN2CCN(c3ccccc3)CC2)C(c2ccccc2)(c2ccccc2)C1=O (stereo not given)
- Ki [1]: 20.4 µM
- Ki [2]: 0.324 µM
- Ki [4]: 0.353 µM

SMILES: CN1C(=O)N(CCCCCN2CCN(c3ccccc3)CC2)C(C)(c2ccccc2)C1=O.Cl (stereo not given)
- Ki [1]: 9.6 µM
- Ki [2]: 0.135 µM
- Ki [3]: 0.0073 µM
- Kb [8]: 0.00731 µM
- Kb [9]: 0.0488 µM
- Kb [10]: 0.0386 µM

SMILES: CC1(C)C(=O)N(Cc2ccc(F)cc2)C(=O)N1CCCCCN1CCN(c2ccc(F)cc2F)CC1.Cl
- Ki [1]: 8.1 µM
- Ki [2]: 0.299 µM
- Ki [3]: 0.0388 µM
- Ki [4]: 0.123 µM

SMILES: CN1C(=O)N(CCCCCN2CCN(c3ccccc3F)CC2)C(C)(c2ccccc2)C1=O.Cl (stereo not given)
- Ki [1]: 25.5 µM
- Ki [2]: 0.124 µM
- Ki [3]: 0.0113 µM
- Kb [8]: 0.00301 µM
- Kb [9]: 0.00721 µM
- Ki [4]: 0.157 µM
- Kb [10]: 0.0483 µM

SMILES: CN1C(=O)N(CCCCCN2CCN(c3ccccc3)CC2)C(c2ccccc2)(c2ccccc2)C1=O.Cl
- Ki [1]: 3.07 µM
- Ki [2]: 0.0132 µM
- Ki [3]: 0.0067 µM
- inhibition [7]: 36.9%
- Ki [4]: 0.077 µM
